Assay results published in paper PMC10488051, “Screening, Synthesis and Biochemical Characterization of SARS-CoV-2 Protease Inhibitors” (International Journal of Molecular Sciences, 2023).

Molecular target: mutant PL^proC111S (Severe acute respiratory syndrome coronavirus 2, UniProt P0DTD1, C1674S)
Type: binding, SARS-CoV-2

Nc1ccccc1SSc1ccccc1N [Compound 32]
Thermal effect (Tm) on mutant PL^proC111S: but not the mutant PL^proC111S
